Assay: xn = mol fraction of the nth substance listed
Conditions: 101 kPa

CC[n+]1ccn(C)c1.N#C[N-]C#N + O
electrical conductivity [S/m]
Conditions | x2 = 0.2 | x2 = 0.4 | x2 = 0.6 | x2 = 0.8
293.2 K | 2.72 | 3.47 | – | –
298.2 K | 3.09 | 3.91 | 5.06 | 6.41
303.2 K | 3.48 | 4.4 | 5.7 | 7.2
308.2 K | – | 4.91 | – | 8
313.2 K | – | 5.43 | 7.03 | –
318.2 K | – | 5.97 | 7.73 | 9.63
323.2 K | 5.25 | 6.52 | 8.42 | 10.5
328.2 K | – | 7.08 | 9.14 | 11.4
333.2 K | 6.22 | 7.65 | 9.85 | 12.2
338.2 K | 6.71 | – | – | 13.1
343.2 K | 7.26 | 8.81 | 11.3 | 13.9
348.2 K | 7.79 | 9.42 | 12 | 14.8
353.2 K | 8.36 | 10 | 12.7 | 15.6

CCn1cc[n+](C)c1.COCCOCCOS(=O)(=O)[O-] + O
electrical conductivity [S/m]
Conditions | x2 = 0.2 | x2 = 0.4 | x2 = 0.6 | x2 = 0.8
293.2 K | 0.19 | 0.24 | 0.42 | 0.82
298.2 K | 0.23 | – | – | 0.99
303.2 K | 0.3 | 0.38 | 0.63 | 1.18
308.2 K | 0.38 | 0.47 | 0.76 | 1.4
313.2 K | – | 0.57 | 0.9 | –
318.2 K | 0.56 | 0.68 | 1.06 | 1.87
323.2 K | 0.67 | 0.79 | 1.22 | 2.12
328.2 K | 0.79 | – | 1.4 | 2.39
333.2 K | 0.92 | 1.06 | 1.58 | 2.68
338.2 K | – | 1.2 | – | –
343.2 K | 1.2 | 1.35 | 1.96 | –
348.2 K | – | – | 2.17 | 3.59
353.2 K | 1.51 | 1.68 | – | –

From a compilation of properties of binary mixtures (doi:10.1016/j.jct.2010.03.017)
